What was measured:
Experiment in all cases: relative viability (nuclei count vs DMSO), 5 days (fraction); higher = more cells survive
Midostaurin + Pemetrexed = compound: CO[C@@H]1[C@H](N(C)C(=O)c2ccccc2)C[C@H]2O[C@]1(C)n1c3ccccc3c3c4c(c5c6ccccc6n2c5c31)C(=O)NC4 [Midostaurin] + Nc1nc2[nH]cc(CCc3ccc(C(=O)N[C@@H](CCC(=O)O)C(=O)O)cc3)c2c(=O)[nH]1 [Pemetrexed] (partner 0.2 µM)
Summary of the method: (§1)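 Dosing by pin tool came one day after lung cancer cell lines were seeded in 1536-well plates, using either one drug or a fixed anchor-drug dose plus five library-drug doses (not always all listed) in √10 steps. After 5 days, nuclei were counted on 4× images. Relative viability is treated-well nuclei count divided by vehicle-well nuclei count, and values are medians of duplicate plates.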

[1] = compound: COc1cc(-c2nn([C@H]3CC[C@H](N4CCN(C(C)=O)CC4)CC3)c3ncnc(N)c23)ccc1NC(=O)c1cc2ccccc2n1C + Nc1nc2[nH]cc(CCc3ccc(C(=O)N[C@@H](CCC(=O)O)C(=O)O)cc3)c2c(=O)[nH]1 [Pemetrexed] (partner 0.2 µM)
Summary of the method: as §1

Midostaurin + Navitoclax = compound: CO[C@@H]1[C@H](N(C)C(=O)c2ccccc2)C[C@H]2O[C@]1(C)n1c3ccccc3c3c4c(c5c6ccccc6n2c5c31)C(=O)NC4 [Midostaurin] + CC1(C)CCC(c2ccc(Cl)cc2)=C(CN2CCN(c3ccc(C(=O)NS(=O)(=O)c4ccc(N[C@H](CCN5CCOCC5)CSc5ccccc5)c(S(=O)(=O)C(F)(F)F)c4)cc3)CC2)C1 [Navitoclax] (partner 0.5 µM)
Summary of the method: as §1

[2] = compound: COc1cc(-c2nn([C@H]3CC[C@H](N4CCN(C(C)=O)CC4)CC3)c3ncnc(N)c23)ccc1NC(=O)c1cc2ccccc2n1C + N=C(N)NC(=N)NCCc1ccccc1 [Phenformin] (partner 250 µM)
Summary of the method: as §1

Midostaurin + Bortezomib = compound: CO[C@@H]1[C@H](N(C)C(=O)c2ccccc2)C[C@H]2O[C@]1(C)n1c3ccccc3c3c4c(c5c6ccccc6n2c5c31)C(=O)NC4 [Midostaurin] + CC(C)C[C@H](NC(=O)[C@H](Cc1ccccc1)NC(=O)c1cnccn1)B(O)O [Bortezomib] (partner 0.002 µM)
Summary of the method: as §1

Row | Cell Line | relative viability (Midostaurin + Pemetrexed; first compound 0.01 µM) | relative viability (Midostaurin + Pemetrexed; first compound 0.03162 µM) | relative viability (Midostaurin + Pemetrexed; first compound 0.1 µM) | relative viability (Midostaurin + Pemetrexed; first compound 0.3162 µM) | relative viability ([1]; first compound 0.0128 µM) | relative viability ([1]; first compound 0.04048 µM) | relative viability ([1]; first compound 0.128 µM) | relative viability ([1]; first compound 1.28 µM) | relative viability (Midostaurin + Navitoclax; first compound 0.01 µM) | relative viability (Midostaurin + Navitoclax; first compound 0.03162 µM) | relative viability (Midostaurin + Navitoclax; first compound 0.1 µM) | relative viability (Midostaurin + Navitoclax; first compound 0.3162 µM) | relative viability ([2]; first compound 0.0128 µM) | relative viability ([2]; first compound 0.04048 µM) | relative viability ([2]; first compound 0.128 µM) | relative viability ([2]; first compound 1.28 µM) | relative viability (Midostaurin + Bortezomib; first compound 0.01 µM) | relative viability (Midostaurin + Bortezomib; first compound 0.03162 µM) | relative viability (Midostaurin + Bortezomib; first compound 0.1 µM) | relative viability (Midostaurin + Bortezomib; first compound 0.3162 µM)
1 | NCI-H2126 | 0.672 | 0.627 | 0.711 | 0.688 | 0.621 | 0.656 | 0.669 | 0.618 | 0.92 | 0.826 | 0.824 | 0.903 | 0.534 | 0.501 | 0.539 | 0.435 | 1.07 | 1.08 | 1.03 | 1.12
2 | NCI-H2228 | 0.35 | 0.343 | 0.313 | 0.334 | 0.362 | 0.348 | 0.31 | 0.322 | 0.665 | 0.824 | 1.01 | 1.02 | 0.278 | 0.26 | 0.327 | 0.327 | 1.21 | 1.19 | 1 | 0.942
3 | NCI-H2347 | 0.459 | 0.416 | 0.417 | 0.405 | 0.45 | 0.447 | 0.431 | 0.382 | 0.771 | 0.832 | 0.902 | 0.889 | 0.51 |  | 0.482 | 0.346 | 0.842 | 0.95 | 0.956 | 0.976
4 | NCI-H2405 | 1.11 | 1 | 0.974 | 1.27 | 1.02 | 0.698 | 0.991 | 0.426 | 0.921 | 1.04 |  | 0.655 | 0.408 | 0.272 | 0.409 | 0.28 | 1.02 | 0.985 | 0.979 | 1.01
5 | NCI-H3122 | 0.201 | 0.185 | 0.201 | 0.19 | 0.19 |  | 0.201 | 0.194 | 1.07 | 0.993 | 1.03 | 1.04 | 0.397 | 0.35 | 0.359 | 0.27 | 0.991 | 0.968 | 1.04 | 1.02
6 | PC-3 [JPC-3] | 0.979 | 1.07 | 0.962 | 1.22 | 0.971 | 1.15 | 1.02 | 1.15 | 0.752 | 0.777 | 0.791 | 0.851 | 0.488 | 0.474 | 0.461 | 0.512 | 0.891 | 0.734 | 0.683 | 0.85
7 | PC-14 | 0.123 | 0.125 | 0.118 | 0.111 | 0.136 | 0.118 | 0.136 | 0.133 | 0.973 | 1.01 | 0.985 | 0.965 | 0.646 | 0.599 | 0.581 | 0.751 | 0.839 | 0.713 | 0.811 | 0.815
8 | RERF-LC-KJ | 0.477 | 0.476 | 0.492 | 0.463 | 0.489 | 0.494 | 0.47 | 0.46 | 1.02 | 1.05 | 1.19 | 0.998 | 0.377 | 0.448 | 0.413 | 0.379 | 1.16 | 1.18 | 1.16 | 1.23
9 | SK-LU-1 | 0.99 | 0.92 | 0.836 | 0.794 | 1.06 | 1.03 | 0.936 | 0.686 | 0.703 | 0.704 | 0.808 | 0.886 | 0.588 | 0.425 | 0.48 | 0.338 | 1.15 | 1.31 | 1.36 | 1.19
10 | SW 1573 | 0.843 | 0.957 | 0.849 | 0.752 | 0.862 | 0.754 | 0.885 | 0.759 | 0.957 | 1.01 | 0.971 | 1.22 | 0.344 | 0.34 | 0.371 | 0.399 | 0.966 | 0.988 | 1.15 | 1.05
